Target: T1, HECT of NEDD4 L553F (Homo sapiens, UniProt P46934, L972F)
T1 construct: 250 nM untagged HECT of NEDD4 WT or NEDD4 L553F or NEDD4L WT; made in house
T1 sequence (P46934 519-900 isoform P46934-4 L553F limits assumed): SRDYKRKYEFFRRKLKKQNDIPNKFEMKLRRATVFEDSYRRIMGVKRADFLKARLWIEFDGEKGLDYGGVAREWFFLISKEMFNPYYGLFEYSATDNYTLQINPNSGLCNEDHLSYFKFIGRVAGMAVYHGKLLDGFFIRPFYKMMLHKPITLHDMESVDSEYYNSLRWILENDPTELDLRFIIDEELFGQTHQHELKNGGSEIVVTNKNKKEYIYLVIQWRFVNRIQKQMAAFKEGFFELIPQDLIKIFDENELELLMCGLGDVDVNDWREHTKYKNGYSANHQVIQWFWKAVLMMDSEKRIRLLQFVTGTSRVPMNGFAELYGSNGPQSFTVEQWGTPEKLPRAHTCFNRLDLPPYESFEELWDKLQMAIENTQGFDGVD
Experiment: In vitro ubiquitination assay detected by western blot, HECT NEDD4 L553F mutant
Type: biochemical
Conditions: 10 μM; FIG. 4c
Procedure: In vitro ubiquitination assay performed with HECT NEDD4 WT and HECT NEDD4L WT in presence of the indicated compounds at 10 μM concentration. The symbol “−” indicates the DMSO-treated sample. Reactions were stopped after 1 hour with Laemmli buffer. […] HECT of NEDD4 bound to compound 12 is shown in light grey, superposed with the structure of HECT of NEDD4L (pdb entry 2oni, version 1.2, 13 Jul. 2011, shown in dark grey). c. In vitro ubiquitination assay using the HECT of NEDD4 WT (HECT WT) and L553F (HECT L553F) was performed in presence of compound 12 at 10 μM concentration. The symbol “-” indicates the DMSO-treated sample. Immunoblot was performed with the anti-ubiquitin antibody (upper panel).
An in vitro ubiquitination assay followed by western blot detection was used to determine the selectivity of the different compounds. The full protocol is described in (E. Maspero et al. Methods Mol Biol. 1449:153-60 (2016)). Briefly, the assay was performed with bacterially purified enzymes (20 nM E1, 250 nM of purified His6-tagged UBE2D3 and 250 nM untagged HECT of NEDD4 WT or NEDD4 L553F or NEDD4L WT) and 1 μM of untagged ubiquitin in ubiquitination buffer (25 mM Tris-HCl, pH 7.6, 5 mM MgCl2, 100 mM NaCl, 0.2 μM DTT). […] The binding pocket determined by X-ray is highly conserved among the various members of the NEDD4 family with few important exceptions. […]

activity of compound on HECT NEDD4 L553F mutant (anti-ubiquitin immunoblot): fully abrogate the activity
Structure (SMILES): CCOC(=O)/C=C/CNCCCCN1c2ccccc2CCc2ccc(Cl)cc21.O=C(O)/C=C\C(=O)O [Compound 12, Ethyl (E)-4-[4-(3-chloro-10,11-dihydro-5H-dibenzo[b,f]azepin-5-yl)butylamino]but-2-enoate maleate]

— patent US12403144B2, “HECT E3 ligase inhibitors and uses thereof” (IFOM FONDAZIONE ISTITUTO FIRC DI ONCOLOGIA MOLECOLARE, priority 2019, dated 2025)
